Results from patent US20220056075A1, “METHOD FOR TREATING OPIOID USE DISORDER” (THE ADMINISTRATORS OF THE TULANE EDUCATIONAL FUND, priority 2019, published 2022).
“And” between values parts separate entries of the source, which are not always exact repeats. Equal values may be shown once. “Also recorded” adds a separate entry of the source.

Experiments:
[1] = system: rats trained to discriminate morphine from vehicle; experiment: Drug discrimination (DD), morphine-trained rats; conditions: for Response rate impairment %: highest dose tested (5.6 mg/Kg), percent of vehicle responding; for response rates for food during test sessions / Maximum % drug-appropriate responding: i.v.; for response rates for food during test sessions: compared to vehicle; for Maximum % drug-appropriate responding: male rats
Experimental: Drug Discrimination (DD): Rats were food deprived to approximately 85% of the weight of free feeding cohorts to establish operant responding for 45 mg food pellets (Bioserve, Frenchtown, N.J.) in standard operant chambers (MED Associates, St. Albans, Vt.). Rats were fed 10-20 g of standard food after daily DD sessions, and ˜3× the daily amount on weekends to maintain appropriate weight. DD consisted of 3 phases (Krivsky et al., 2006). In phase 1, rats were trained to lever press for food at a fixed ratio (FR) level 1 (i.e., 1 lever press=1 food pellet) using 2 levers with stimulus lights located above each lever and a food hopper between the levers during 120 min sessions. Responding on either lever extinguished the light and delivered a food pellet. […] Once >20 pellets were earned at FR9, sessions were shortened to 20 min and response requirements were set at FR10 and the left or right lever reinforced responding on alternate days. Once >20 pellets were earned on each lever at FR10, rats started phase 2 of DD training.
Only responses on the correct lever were reinforced and responses on the incorrect lever reset the response requirement on the correct lever. Criteria to move to phase 3 were as follows: >20 pellets per session, >90% injection appropriate lever responding, and <9 responses on the incorrect lever before the first food pellet reward.
Two paradigms were utilized to generate substitution curves: cumulative within-session and bolus between-session injections.
During substitution tests, both levers actively delivered food at an FR10 schedule. […] Doses were increased in ¼ log increments, with injections every 20 min followed 15 minutes later by DD sessions lasting 5 min each. […] The advantage of this procedure was that an entire dose-response was generated in one session.
Statistics: PRISM software (GraphPad, San Diego, Calif.) was used for one-way analysis of variance (ANOVA) with Newman-Keuls post-hoc comparisons to compare CPP groups, locomotor effects, hot plate, and DD response rates. Locomotor data recorded during the conditioning sessions were analyzed by 2-way ANOVA (session x drug) and data from the first session were subtracted from the final session to assess locomotor enhancement. Experimenters were blinded to treatment groups.

[2] = cumulative doses producing maximum antinociceptive effects; cited from earlier work
rats = conditions: cited from earlier work
male rats [3] = experiment: Maintenance of established oxycodone self-administration (substitution); assay type: in vivo, rat; conditions: after acquisition of oxycodone SA; drug continued or substituted, i.v. infusions
Experimental: (§1) Self-administration (SA): Self-administration tests were conducted in standard operant chambers (MED Associates, St. Albans, Vt.). Infusions were delivered through TYGON tubing threaded through metal spring leashes and attached to exterior infusion pumps. 3-hour sessions were conducted Monday-Friday during the dark cycle. At the start of each session, the house light was illuminated, and levers extended. […] For the first 5 sessions, rats were trained to lever press for oxycodone (0.1 mg/kg/infusion) on a FR1 reinforcement schedule. For the following 10 sessions, the dose of oxycodone was decreased to 0.05 mg/kg/infusion to increase lever responding.
Maintenance of established oxycodone self-administration: Following acquisition of oxycodone self-administration, animals were split into treatment groups counterbalanced for total oxycodone intake, average number of infusions obtained in the last 3 sessions, and average number of active lever pressings over the last 3 sessions. Ten maintenance sessions were conducted in the same way as oxycodone acquisition except rats were either maintained on 0.1 mg/kg/infusion oxycodone or had drug availability substituted with equi-antinociceptive 1 mg/kg/infusion ZH853 or vehicle.

male rats [4] = experiment: Forced abstinence and relapse test (oxycodone seeking); assay type: in vivo, rat; conditions: 8th day of forced abstinence; i.v. pretreatment ZH853 1.8 or 3.2 mg/kg, oxycodone 0.32 mg/kg
Experimental: as §1
Forced abstinence and relapse test: Following acquisition of oxycodone self-administration, rats underwent 7 days of forced abstinence from oxycodone and exposure to the testing environment in their home cages. Animals were then split into treatment groups counterbalanced for total oxycodone intake, average number of infusions obtained in the last 3 sessions, and average number of active lever pressings over the last 3 sessions. On the 8th day of forced abstinence, rats were given an intravenous injection of 1.8 mg/kg ZH853, 3.2 mg/kg ZH853, or vehicle. The relapse test began 30 minutes later.

DBA mice = experiment: Hot plate antinociception test; assay type: in vivo, mouse; conditions: 40 mg/Kg, s.c.
Male Sprague Dawley rats [5] = experiment: Locomotor sensitization during CPP conditioning sessions; assay type: in vivo, rat; conditions: 1.8, 3.2, 5.6 mg/Kg i.v., 5 daily injections, compared to vehicle
Experimental: (§2) Conditioned Place Preference (CPP) and locomotor activity: Standard CPP chambers (TSE; Chesterfield, Mo.) were used to measure baseline activity and conditioning trials. Baseline activity was measured over 2 days with 4 trials per day (2 in the AM, and 2 in the PM) lasting 20 min each. […] Conditioning trials were conducted for 5 days and tested in an unbiased manner such that drug/environment pairings were counterbalanced for time of drug injection (AM or PM) and compartment (preferred or non-preferred) based on baseline activity. […] This indicates a lack of carry-over effects of drug between sessions. One day following the last conditioning trial, a 20 min test trial was conducted in the same manner as baseline trials in which rats were free to explore both compartments. Change in time spent exploring the drug-paired compartment (test-baseline) was used to indicate preference (or aversion) to the compartment. Approximately 20 min following the final session, rats were perfused and brain samples were taken for immunohistochemical analysis (below). Locomotor activity was assessed by infrared light beams located in the conditioning compartments and the start box. […] Data were recorded in meters and an assessment of locomotor sensitization was made by subtracting the first session from the final session.
(§3) Experimenters were blinded to treatment groups.

Male Sprague Dawley rats [6] = experiment: Conditioned place preference (CPP), 5-day procedure; assay type: in vivo, rat; conditions: 5 days of conditioning
Experimental: as §2, §3

male and female mice = assay type: in vivo, mouse; conditions: s.c., compared to vehicle
[7] = system: dopamine (DA) neurons in the posterior VTA; experiment: VTA dopamine cell soma morphology (TH staining, STEREO INVESTIGATOR); assay type: in vivo, rat; conditions: 5 consecutive daily i.v. injections; morphine effect at 5.6 mg/Kg
Experimental: DA morphology analysis: Fifteen min following the final CPP test session, rats were anesthetized with a mixture of ketamine/xylazine (85/10 mg/Kg, i.p., respectively) and perfused intracardially with 200 mL of 0.1 mol/L phosphate buffered saline (PBS) immediately followed by 300 mL of 4% paraformaldehyde in 0.1 mol/L PBS (pH=7.4). Brains were removed and post-fixed at 4° C. in the same fixative for 18 h. After post-fixation, brains were incubated in 30% sucrose at 4° C. for 2 days and sectioned coronally on a cryostat at 40 μm at the level of the posterior VTA (Spiga et al., 2003; Chu et al., 2008). After 2 consecutive washes in PBS, sections were blocked with 5% normal donkey serum (NDS) for 1 h, and incubated with the primary antibody anti-tyrosine-hydroxylase (anti-TH, 1: 3000 Cell Signaling Technology, Danvers, Mass.) overnight at 4° C. Slices were washed twice in PBS, re-blocked for 1 h, and incubated with the secondary antibody ALEXA594 (Life Technologies, Carlsbad, Calif.), for 2 h. Sections were washed, mounted on slides with PROLONG GOLD (Life Technologies), and stored at 4° C. Posterior VTA sections were verified according to the atlas of Paxinos and Watson (2007). Images of the parabrachial pigmented area (PBP) and the paranigral area (PN) subregions of the posterior VTA were captured in z-stacks (1 μm) with at least 5 tissue slices per rat and 5-6 rats per drug group. STEREO INVESTIGATOR software (MBF Bioscience; Williston, Va.) was used to quantify soma size using the optical fractionator probe to survey a sample of neurons in each z-stack while the nucleator probe was used to measure the cross-sectional area and volume of each cell soma. The optical fractionator probe was used to quantify the number of cells in a particular section of tissue through systematic random sampling. Between 12 and 16 regions were surveyed per z-stack. While the optical fractionator probe utilized stereological techniques to select a random sample to be analyzed, the nucleator probe measured the cross-sectional area of each neuron. Therefore, the simultaneous use of these probes systematically assessed neurons in the PBP and PN regions of the VTA in each subject, and provided morphological data for these cells including surface area (μm^2) and volume (μm^3). Cell somas were eligible to be quantified if they were located within the counting frame and/or if the soma touched either of the nucleator frame's green borders. Neurons were ineligible if located outside the counting frame and/or if their soma touched the frame's red borders. After determining this optimum depth, the center of the soma was located and analyzed by the nucleator probe. To eliminate bias associated with tissue orientation, nucleator rays were randomly arranged between quantifications. […]

Male Sprague-Dawley rats = experiment: Reinstatement of morphine-induced conditioned place preference; conditions: priming dose 1.8 mg/Kg, 20 min, vs baseline
Experimental: Male Sprague-Dawley rats were exposed to a conditioned place preference (CPP) apparatus for two sessions to determine baseline (BL) preference for 2 distinct, unbiased chambers. […] The animals then underwent extinction procedures consisting of confinement for 45 min in the previously drug- and vehicle-paired chambers for 7 days.

male and female rats = experiment: Naloxone-induced conditioned place aversion (CPA); assay type: in vivo, rat; conditions: i.v. morphine 5.6 mg/Kg or ZH853 4.2 mg/Kg, naloxone 1 mg/Kg s.c. 4 h later
Experimental: Four hours later they received s.c. naloxone (1 mg/Kg) and were confined to one side of the apparatus (counterbalanced) for 20 min. The following day the animals received vehicle-then-saline rather than drug-then-naloxone. This cycle (drug+4 h+nlx+next day vehicle+saline) was repeated once, and the next day the animals had access to the entire apparatus (Post-cond).
To assess whether ZH853 induces the negative affect typical of opioid withdrawal, the conditioned place aversion (CPA) test was conducted.

Question: What does the source list for `NC(=O)[C@@H]1CCCCNC(=O)CC[C@@H](NC(=O)[C@@H](N)Cc2ccc(O)cc2)C(=O)N[C@@H](Cc2ccccc2)C(=O)N[C@@H](Cc2ccccc2)C(=O)N1` [ZH831, Tyr-c[D-Glu-Phe-Phe-Lys]-NH2]?
Answer: Response rate impairment % ([1]; bolus injections): 21% and 21.1%; Response rate impairment % ([1]; cumulative injections): 31% and 30.6%; response rates for food during test sessions [1]: not impaired; motor impairment on the Rotarod [2]: lack of motor impairment; reinforcing effects in SA/CPP procedures (rats; rat, in vivo): did not produce reinforcing effects in SA/CPP procedures

Question: For `COc1ccc2c3c1O[C@H]1C(=O)CC[C@@]4(O)[C@@H](C2)N(C)CC[C@]314` [oxycodone, reference compound], which “self-administration behavior during maintenance sessions” value (male rats [3]) is on record?
Answer: the drug-seeking behavior was maintained

Question: And the “oxycodone-seeking (SA behavior, active lever responding) in 1-hour relapse test” value (male rats [4])?
Answer: associated with a relapse to SA behavior

Question: With `COC(=O)/C=C/C(=O)N[C@@H]1CC[C@@]2(O)[C@H]3Cc4ccc(O)c5c4[C@@]2(CCN3CC2CC2)[C@H]1O5` [βFNA, beta-funaltrexamine] as the compound, how does the antinociceptive properties alone (DBA mice) read?
Answer: no antinociceptive properties alone

Question: Which “locomotor sensitization (LS), day 5 minus day 1” value (Male Sprague Dawley rats [5]) does the source give for `CN1CC[C@]23c4c5ccc(O)c4O[C@H]2[C@@H](O)C=C[C@H]3[C@H]1C5.O=S(=O)(O)O` [Morphine, Morphine sulfate, reference compound] here?
Answer: produced LS at all doses tested

Question: And the “conditioned place preference (CPP)” value (Male Sprague Dawley rats [6]; 3.2 mg/Kg i.v.)?
Answer: produced conditioned place preference (CPP) effects

Question: What about the “conditioned place preference (CPP)” value (Male Sprague Dawley rats [6]; 1.8 and 5.6 mg/Kg i.v.) of the same compound?
Answer: did not produce significant CPP

Question: And the tail flick antinociception (male and female mice)?
Answer: increased the latency to tail flick

Question: And the “surface area of TH-positive somas in pVTA” value [7]?
Answer: reduced

Question: And the “volume of TH-positive somas in pVTA” value [7]?
Answer: reduced

Question: What about the “doses disrupting response rates during test sessions” value ([1]; bolus injections) of the same compound?
Answer: ≥ 3.2 mg/kg

Question: And the “Maximum % drug-appropriate responding” value ([1]; bolus injections made between sessions)?
Answer: 100%

Question: And the “Response rate impairment %” value ([1]; bolus injections, sulfate)?
Answer: 77% and 77.1%

Question: What about the “doses disrupting response rates during test sessions” value ([1]; cumulative injections) of the same compound?
Answer: ≥ 5.6 mg/kg

Question: And the “Maximum % drug-appropriate responding” value ([1]; cumulative injections within a single session)?
Answer: 100%

Question: And the “Response rate impairment %” value ([1]; cumulative injections, sulfate)?
Answer: 55% and 54.5%

Question: What about the “response rates for food during test sessions” value [1] of the same compound?
Answer: reduced response rates compared to vehicle

Question: What about the “response rates for food during training” value ([1]; training doses 3.2 mg/Kg s.c. and 1.8 mg/Kg i.v., compared to saline) of the same compound?
Answer: modestly impaired

Question: And the appropriate drug-lever responding ([1]; training, after approximately 20 sessions)?
Answer: > 90%

Question: And the “reinstatement of morphine CPP after extinction” value (Male Sprague-Dawley rats)?
Answer: showed reinstatement of CPP

Question: And the naloxone-induced place aversion (male and female rats)?
Answer: produces aversive behavior

Question: What about the “hourly SA intake” value (rats; 12-hour SA sessions, 1 mg/Kg/infusion) of the same compound?
Answer: ~3.5 mg/kg/h

Question: With `NC(=O)[C@@H]1CCC(=O)NCCCC[C@@H](NC(=O)[C@@H](N)Cc2ccc(O)cc2)C(=O)N[C@@H](Cc2c[nH]c3ccccc23)C(=O)N[C@@H](Cc2ccccc2)C(=O)N1` [ZH850, Tyr-c[D-Lys-Trp-Phe-Glu]-NH2] as the compound, how does the “Response rate impairment %” value ([1]; bolus injections) read?
Answer: 30% and 30.4%

Question: What about the “Response rate impairment %” value ([1]; cumulative injections) of the same compound?
Answer: −0.3%

Question: What about the “response rates for food during test sessions” value [1] of the same compound?
Answer: impaired response rates only after bolus, but not after cumulative injections; also recorded: reduced response rates compared to vehicle
